Test results as given in patent US20210130316A1, “MORPHINAN DERIVATIVES AND COMPOSITIONS COMPRISING THE SAME FOR TREATING AUTOIMMUNE, IN[…] INFECTION RELATED DISORDERS” (TAIWANJ PHARMACEUTICALS CO., LTD, priority 2017, published 2021).

Tests used:
HEK293 cells = test: Cell viability assay (MTT method); assay type: cell-based; details: compound 20 μM, percentage of viable LPS-stimulated cells
Description: HEK 293 cells (2.5-5.0×10^4 cells/well) were seeded in 96-well plate for overnight and treated with different compounds for 16-24 hours. Cell growth was determined by MTh-based colorimetric assays. Viability of the test cells treated with vehicle (0.5% DMSO) only was defined as 100% viable. Survival of cells after treatment with DETDs was calculated using the following formula:
Viable cell number (%)=OD570 (treated cell culture)/OD570 (vehicle control)×100.
The ell viability assay was performed by the MTT method. Cells were incubated with 45 μl of 5 mg/ml MTT for 1 hour at 37° C., and 150 μl of DMSO was added at the end of culture to dissolve the crystals. The signals of individual samples in 96-well plates were detected at O.D.570 nm with Molecular Device SpectraMax Imaging Cytometer. Cell viability was expressed in percentage of viable LPS-stimulated cells.

[1] = molecular target: T1, Toll-like receptor 4 (TLR4) (Homo sapiens, UniProt O00206+Q9Y6Y9); test: NF-κB-inducible SEAP reporter assay of LPS-stimulated TLR4 activity in TLR4-expressing HEK293 cells; assay type: cell-based; details: for TLR-4 antagonist activity in words (summary of Table 3): 20 μM; for inhibition at 20 µM: compound 20 μM, LPS 10 ng/ml, 16-24 hours incubation, TLR4-expressing HEK293 cells, read-out: TLR-4 inhibition (%) Average
T1 construct: expressed in transfected cells; host or cells: HEK293
T1 sequence (O00206 24-839, species assumed): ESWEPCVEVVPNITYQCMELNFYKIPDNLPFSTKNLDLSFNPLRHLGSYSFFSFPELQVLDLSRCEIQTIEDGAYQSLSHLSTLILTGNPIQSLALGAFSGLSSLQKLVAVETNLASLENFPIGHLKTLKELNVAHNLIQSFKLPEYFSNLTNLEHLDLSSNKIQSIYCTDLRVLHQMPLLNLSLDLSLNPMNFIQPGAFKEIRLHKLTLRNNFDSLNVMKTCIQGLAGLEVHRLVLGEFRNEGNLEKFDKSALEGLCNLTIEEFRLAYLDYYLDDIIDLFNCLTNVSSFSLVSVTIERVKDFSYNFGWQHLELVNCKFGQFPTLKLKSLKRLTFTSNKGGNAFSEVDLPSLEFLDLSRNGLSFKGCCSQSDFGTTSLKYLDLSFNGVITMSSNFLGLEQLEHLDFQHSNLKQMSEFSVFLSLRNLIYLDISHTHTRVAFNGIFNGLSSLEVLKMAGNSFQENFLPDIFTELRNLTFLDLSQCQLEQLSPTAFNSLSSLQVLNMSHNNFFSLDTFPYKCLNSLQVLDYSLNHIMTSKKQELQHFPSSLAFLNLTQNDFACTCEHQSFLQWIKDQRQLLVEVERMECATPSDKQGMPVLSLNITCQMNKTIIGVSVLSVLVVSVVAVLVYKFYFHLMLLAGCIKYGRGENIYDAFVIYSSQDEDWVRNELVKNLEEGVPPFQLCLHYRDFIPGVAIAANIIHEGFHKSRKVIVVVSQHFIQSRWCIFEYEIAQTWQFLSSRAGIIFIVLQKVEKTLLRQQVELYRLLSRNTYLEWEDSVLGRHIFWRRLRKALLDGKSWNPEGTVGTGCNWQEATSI
T1 sequence (Q9Y6Y9 17-160 limits assumed, species assumed): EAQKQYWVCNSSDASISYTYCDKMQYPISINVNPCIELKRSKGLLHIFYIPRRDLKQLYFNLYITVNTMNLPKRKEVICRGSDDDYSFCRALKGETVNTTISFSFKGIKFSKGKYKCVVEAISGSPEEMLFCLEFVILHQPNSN
Description: Stimulation of the Toll-like receptor 4 (TLR4) was determined by assessing activation of the transcription factor NF-κB in HEK293 cells that were engineered to express TLR4. Assessment of TLR4 stimulation was based on the use of an NF-κB-inducible secreted alkaline phosphatase (SEAP) reporter system in which the SEAP reporter was under the control of a promoter inducible by NF-κB. Thus, the degree of activation of TLR4 can be indirectly quantified spectrophotometrically by measuring the amount of the SEAP reporter that is produced.
The TLR4-expressing cells were plated in HEK-Blue Detection (Invivogen, San Diego, Calif.) medium in a 96-well plate (25,000-50,000 cells/well). The cells were stimulated with lipopolysaccharides (LPS) alone or in combination with the compound of example 1. Cell culture without LPS and the compound of example 1 was defined as baseline control. To test whether the compound of example 1 could block that activation of the TLR4, the cells were treated with the compound of example 1 (20 μM) and LPS (final conc. 10 ng/ml/well). After a16-24 hours incubation period at 37° C. in a CO2 incubator, The signals of individual samples in 96-well plates were detected at O.D.650 nm with a Molecular Devices SpectraMax i3 Imaging Cytometer. The TLR4 activity was expressed in percentage of LPS alone-stimulated cells minus baseline control.

O=[N+]([O-])c1ccc(N2CC[C@@]34CCCC[C@@H]3[C@@H]2Cc2ccc(O)cc24)cc1 [Compound 3]
Cell viability (%) Average (HEK293 cells): 82.1%
TLR-4 antagonist activity in words (summary of Table 3) [1]: weak to negligible activity towards TLR-4
inhibition at 20 µM [1]: 0%

Nc1ccc(N2CC[C@@]34CCCC[C@@H]3[C@@H]2Cc2ccc(O)cc24)cc1 [Compound 4]
Cell viability (%) Average (HEK293 cells): 92.2%
TLR-4 antagonist activity in words (summary of Table 3) [1]: strong antagonists of TLR-4
inhibition at 20 µM [1]: 90.5%

COc1ccc2c(c1)[C@]13CCCC[C@@H]1[C@H](C2)N(c1ccc([N+](=O)[O-])c(N)c1)CC3 [Compound 5]
Cell viability (%) Average (HEK293 cells): 110.9%
TLR-4 antagonist activity in words (summary of Table 3) [1]: weak to negligible activity towards TLR-4
inhibition at 20 µM [1]: 13.2%

COc1ccc2c(c1)[C@]13CCCC[C@@H]1[C@H](C2)N(c1ccc(N)cc1)CC3 [Compound 6]
Cell viability (%) Average (HEK293 cells): 83.1%
TLR-4 antagonist activity in words (summary of Table 3) [1]: moderate to mild inhibitory activity toward TLR-4
inhibition at 20 µM [1]: 37.7%

CCOC(=O)Nc1ccc(N2CC[C@@]34CCCC[C@@H]3[C@@H]2Cc2ccc(OC)cc24)cc1 [Compound 7]
Cell viability (%) Average (HEK293 cells): 79.3%
TLR-4 antagonist activity in words (summary of Table 3) [1]: weak to negligible activity towards TLR-4
inhibition at 20 µM [1]: 0%

COc1ccc2c(c1)[C@]13CCCC[C@@H]1[C@H](C2)N(c1ccc(NC(=O)CCCc2ccccc2)cc1)CC3 [Compound 8]
Cell viability (%) Average (HEK293 cells): 104.7%
TLR-4 antagonist activity in words (summary of Table 3) [1]: weak to negligible activity towards TLR-4
inhibition at 20 µM [1]: 6%

COc1ccc2c(c1)[C@]13CCCC[C@@H]1[C@H](C2)N(S(=O)(=O)c1ccc([N+](=O)[O-])cc1)CC3 [Compound 9]
Cell viability (%) Average (HEK293 cells): 104.1%
TLR-4 antagonist activity in words (summary of Table 3) [1]: moderate to mild inhibitory activity toward TLR-4
inhibition at 20 µM [1]: 23.7%

COc1ccc2c(c1)[C@]13CCCC[C@@H]1[C@H](C2)N(S(=O)(=O)c1ccc(N)cc1)CC3 [Compound 10]
Cell viability (%) Average (HEK293 cells): 111.6%
TLR-4 antagonist activity in words (summary of Table 3) [1]: moderate to mild inhibitory activity toward TLR-4
inhibition at 20 µM [1]: 30%

COc1ccc2c(c1)[C@]13CCCC[C@@H]1[C@H](C2)N(CC(O)COc1ccccc1)CC3 (stereo partly drawn) [Compound 11]
Cell viability (%) Average (HEK293 cells): 88.8%
TLR-4 antagonist activity in words (summary of Table 3) [1]: remarkable inhibitions on TLR-4
inhibition at 20 µM [1]: 54.5%

COc1ccc2c(c1)[C@]13CCCC[C@@H]1[C@H](C2)N(CC(O)CSc1ccccc1)CC3 (stereo partly drawn) [Compound 12]
Cell viability (%) Average (HEK293 cells): 81.3%
TLR-4 antagonist activity in words (summary of Table 3) [1]: remarkable inhibitions on TLR-4
inhibition at 20 µM [1]: 59.1%

COc1ccc2c(c1)[C@]13CCCC[C@@H]1[C@H](C2)N(CC(O)CN1CCOCC1)CC3 (stereo partly drawn) [Compound 13]
Cell viability (%) Average (HEK293 cells): 101.5%
TLR-4 antagonist activity in words (summary of Table 3) [1]: weak to negligible activity towards TLR-4
inhibition at 20 µM [1]: 2.8%

CC(=O)Nc1ccc(S(=O)(=O)N2CC[C@@]34CCCC[C@@H]3[C@@H]2Cc2ccc(O)cc24)cc1 [Compound 15]
Cell viability (%) Average (HEK293 cells): 104.0%
TLR-4 antagonist activity in words (summary of Table 3) [1]: moderate to mild inhibitory activity toward TLR-4
inhibition at 20 µM [1]: 45.1%

Nc1ccc(S(=O)(=O)N2CC[C@@]34CCCC[C@@H]3[C@@H]2Cc2ccc(O)cc24)cc1 [Compound 16]
Cell viability (%) Average (HEK293 cells): 75.5%
TLR-4 antagonist activity in words (summary of Table 3) [1]: moderate to mild inhibitory activity toward TLR-4
inhibition at 20 µM [1]: 42.1%

Nc1cc(N2CC[C@@]34CCCC[C@@H]3[C@@H]2Cc2ccc(O)cc24)ccc1[N+](=O)[O-] [Compound 17]
Cell viability (%) Average (HEK293 cells): 116.0%
TLR-4 antagonist activity in words (summary of Table 3) [1]: remarkable inhibitions on TLR-4
inhibition at 20 µM [1]: 53.1%

Nc1ccc(N2CC[C@@]34CCCC[C@@H]3[C@@H]2Cc2ccc(O)cc24)cc1N [Compound 18]
Cell viability (%) Average (HEK293 cells): 143.0%
TLR-4 antagonist activity in words (summary of Table 3) [1]: remarkable inhibitions on TLR-4
inhibition at 20 µM [1]: 57.7%

CC(C)N(c1ccc(N2CC[C@@]34CCCC[C@@H]3[C@@H]2Cc2ccc(O)cc24)cc1)C(C)C [Compound 19]
Cell viability (%) Average (HEK293 cells): 99.2%
TLR-4 antagonist activity in words (summary of Table 3) [1]: remarkable inhibitions on TLR-4
inhibition at 20 µM [1]: 75.3%

CC(C)Nc1ccc(N2CC[C@@]34CCCC[C@@H]3[C@@H]2Cc2ccc(O)cc24)cc1 [Compound 20]
Cell viability (%) Average (HEK293 cells): 89.9%
TLR-4 antagonist activity in words (summary of Table 3) [1]: strong antagonists of TLR-4
inhibition at 20 µM [1]: 99.8%

Nc1ccc(N2CC[C@@]34CCCC[C@@H]3[C@@H]2Cc2ccc(O)cc24)c(F)c1 [Compound 21]
Cell viability (%) Average (HEK293 cells): 97.4%
TLR-4 antagonist activity in words (summary of Table 3) [1]: weak to negligible activity towards TLR-4
inhibition at 20 µM [1]: 13.8%

Cc1cc(N2CC[C@@]34CCCC[C@@H]3[C@@H]2Cc2ccc(O)cc24)ccc1N [Compound 22]
Cell viability (%) Average (HEK293 cells): 101.7%
TLR-4 antagonist activity in words (summary of Table 3) [1]: remarkable inhibitions on TLR-4
inhibition at 20 µM [1]: 64.2%

Nc1ccc(N2CC[C@@]34CCCC[C@@H]3[C@@H]2Cc2ccc(O)cc24)c(C(F)(F)F)c1 [Compound 23]
Cell viability (%) Average (HEK293 cells): 96.2%
TLR-4 antagonist activity in words (summary of Table 3) [1]: weak to negligible activity towards TLR-4
inhibition at 20 µM [1]: 22.9%

O=[N+]([O-])c1ccc(N2CC[C@@]34CCCC[C@@H]3[C@@H]2Cc2ccc(O)cc24)nc1 [Compound 24]
Cell viability (%) Average (HEK293 cells): 103.3%
TLR-4 antagonist activity in words (summary of Table 3) [1]: moderate to mild inhibitory activity toward TLR-4
inhibition at 20 µM [1]: 43.5%

Nc1ccc(N2CC[C@@]34CCCC[C@@H]3[C@@H]2Cc2ccc(O)cc24)nc1 [Compound 25]
Cell viability (%) Average (HEK293 cells): 100.8%
TLR-4 antagonist activity in words (summary of Table 3) [1]: weak to negligible activity towards TLR-4
inhibition at 20 µM [1]: 13.3%
